# In patent US20250163074A1, “CDK Inhibitors And Their Use As Pharmaceuticals” (Prelude Therapeutics Incorporated, priority 2020, published 2025):
# pIC50: −log10 of the molar value. Where two headings read alike, the source gives them in different places.
# Columns and labels:
# CDK4/Cyclin D1 = CDK4/Cyclin D1 (Homo sapiens (Human), UniProt P11802); assay: CDK4/CyclinD1 enzymatic activity assay (TR-FRET); format: biochemical; conditions: CDK4/CyclinD1 1 nM, ATP 2 mM, read-out: CDK4_D1 IC50
# Procedure: CDK4/CyclinD1 Enzymatic Activity Assay
# The inhibitory activity of compounds was evaluated in vitro using TR-FRET assay with white 384-well low volume microplate (Greiner Bio-One). CDK4/Cyclin D1 catalyzed phosphorylation of peptide in the presence and absence of compounds was measured. IC50 determination. Recombinant protein complex CDK4/Cyclin D1, expressed from insect cell, was purchased from ProQinase. Testing compounds were dissolved in DMSO at 0.1 mM and tested in 9-dose IC50 mode. The reaction mixture was prepared by mixing CDK4/CyclinD1 (1 nM final), ULight-4E-BP1 (100 nM final, Perkinelmer, TRF0128-D), and ATP (2 mM final) in assay buffer (20 mM of HEPES pH 7.4, 1 mM of EGTA, 0.05% BSA, 0.005% Tween 20, and 1 mM TCEP). The compound of interest in DMSO was added to each well in 3-fold serial dilution by dispenser (TECAN D300E). After 20 minutes preincubation at room temperature, MgCl2 (10 mM final) was added to initiate the reaction. Following a 60 minutes incubation at 37° C., the reaction was stopped by addition of 2 μL of quenching buffer consisting of Lance detection buffer (Perkinelmer CR97-100C), 2 nM LANCE Ultra Europium-anti-P-4E-BP1 (Perkinelmer, TRF0216-D), 10 mM EDTA, and incubate at room temperature for additional 60 minutes in dark. The reaction signal was measured by Envision multimode plate reader (PerkinElmer, 2102-0010). IC50 values were determined by fitting the data to the standard 4 parameters with Hill Slope using GraphPad Prism software.
# [1] = system: MCF7 adenocarcinoma cell line; assay: Cell proliferation studies in MCF7 cells (ATP-Lite); format: cell-based; conditions: 10 days incubation, cell viability by ATP-Lite luminescence, read-out: PROLIFERATION_CTG_MCF7 IC50
# Procedure: Cell Proliferation Studies in MCF7 Cells
# Cell proliferation studies were conducted in MCF7 adenocarcinoma cell line. Cells were maintained in DMEM (Corning, Catalog #: 10-013-CV) supplemented with 10% v/v FBS (Gibco, Catalog #: 26140-079), 1% v/v Penicillin Streptomycin (Gibco, Catalog #15140-122) Cells were seeded in 384-well plates at a density of 100 or 200 cells/well. Compounds dissolved in DMSO were plated in quadruplicate using a digital dispenser (D300E, Tecan) and tested on a 9-point 3-fold serial dilution. Cells were incubated for 10 days in a 37° C. active humidified incubator at 5% CO2. A media exchange and second compound addition were performed on day 5. Cell viability was measured using the ATP-Lite 1-Step Luminescence reagent (Perkin Elmer, Catalog #: 6016731) as per manufacturer's instructions. Luminescence signal was measured with a multimode plate reader (Envision 2105, Perkin Elmer). Raw data files were imported to Dotmatics Screening Ultra for IC50 analysis. Luminescence values were normalized to both background and DMSO controls to obtain a percentage of viable cells relative to DMSO vehicle control.
# Sequence of CDK4/Cyclin D1 (P11802 whole entry): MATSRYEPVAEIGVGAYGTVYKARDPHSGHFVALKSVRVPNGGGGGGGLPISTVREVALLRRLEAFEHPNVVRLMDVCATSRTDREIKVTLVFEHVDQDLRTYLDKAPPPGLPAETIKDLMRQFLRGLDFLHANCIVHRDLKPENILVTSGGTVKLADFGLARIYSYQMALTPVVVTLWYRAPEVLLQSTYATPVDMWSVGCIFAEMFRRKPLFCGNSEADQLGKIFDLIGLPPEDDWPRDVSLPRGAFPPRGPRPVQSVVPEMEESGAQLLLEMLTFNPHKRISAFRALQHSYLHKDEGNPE
# Sequence of CDK4/Cyclin D1 (P24385 whole entry partner): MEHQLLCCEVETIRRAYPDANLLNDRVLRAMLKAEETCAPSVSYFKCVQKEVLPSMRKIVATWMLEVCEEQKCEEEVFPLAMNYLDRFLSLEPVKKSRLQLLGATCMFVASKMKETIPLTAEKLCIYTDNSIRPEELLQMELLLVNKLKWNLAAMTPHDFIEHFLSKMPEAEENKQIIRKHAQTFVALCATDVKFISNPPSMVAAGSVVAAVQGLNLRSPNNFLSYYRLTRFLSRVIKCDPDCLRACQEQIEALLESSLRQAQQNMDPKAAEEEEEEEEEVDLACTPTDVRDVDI
Structure (SMILES),pIC50 (CDK4/Cyclin D1),"pIC50 ([1]; Homo sapiens, 240 h)",pIC50 [1]
"CCN1C(=O)c2cc(-c3nc(Nc4ccc(C5CCN(C)CC5)cn4)ncc3C)sc2C12CC2 [Example 19, 5′-Ethyl-2′-[5-methyl-2-[[5-(1-methylpiperidin-4-yl)pyridin-2-yl]amino]pyrimidin-4-yl]spiro[cyclopropane-1,6′-thieno[2,3-c]pyrrole]-4′-one]",≥ 7.70,6.70 to 7.70,
"Cc1c(-c2nc(Nc3ccc(N4CC5CC(C4)N5C)cn3)ncc2F)sc2c1C(=O)N(C)CC21CC1 [Example 33, 2′-(5-Fluoro-2-((5-(6-methyl-3,6-diazabicyclo[3.1.1]heptan-3-yl)pyridin-2-yl)amino)pyrimidin-4-yl)-3′,5′-dimethyl-5′,6′-dihydro-4′H-spiro[cyclopropane-1,7′-thieno[3,2-c]pyridin]-4′-one]",≥ 7.70,6.70 to 7.70,
"CCN1CCN(Cc2ccc(Nc3ncc(F)c(-c4sc5c(c4C)C(=O)N(C)CC54CC4)n3)nc2)CC1 [Example 38, 2′-(2-((5-((4-Ethylpiperazin-1-yl)methyl)pyridin-2-yl)amino)-5-fluoropyrimidin-4-yl)-3′,5′-dimethyl-5′,6′-dihydro-4′H-spiro[cyclopropane-1,7′-thieno[3,2-c]pyridin]-4′-one]",≥ 7.70,5.70 to 6.70,
"CCN1CC2(C1)CN(c1ccc(Nc3ncc(C)c(-c4sc5c(c4C)C(=O)N(C)CC54CC4)n3)nc1)C2 [Example 42, 2-[2-[[5-(6-Ethyl-2,6-diazaspiro[3.3]heptan-2-yl)pyridin-2-yl]amino]-5-methylpyrimidin-4-yl]-3,5-dimethylspiro[6H-thieno[3,2-c]pyridine-7,1′-cyclopropane]-4-one]",≥ 7.70,6.70 to 7.70,
CCN1CC2(C1)CN(c1ccc(Nc3ncc(Cl)c(-c4sc5c(c4C)C(=O)N(C)CC54CC4)n3)nc1)C2 [Example 44],≥ 7.70,,6.70 to 7.70
"CN1CC2(CCC2)c2sc(-c3nc(Nc4ccc(C5CCN(CC(F)F)CC5)cn4)ncc3F)cc2C1=O [Example 49, 2′-(2-((5-(1-(2,2-Difluoroethyl)piperidin-4-yl)pyridin-2-yl)amino)-5-fluoropyrimidin-4-yl)-5′-methyl-5′,6′-dihydro-4′H-spiro[cyclobutane-1,7′-thieno[3,2-c]pyridin]-4′-one]",≥ 7.70,,
"CCN1CCC12CN(c1ccc(Nc3ncc(F)c(-c4cc5c(s4)C4(CCC4)CN(C)C5=O)n3)nc1)C2 [Example 51, 2′-(2-((5-(1-Ethyl-1,6-diazaspiro[3.3]heptan-6-yl)pyridin-2-yl)amino)-5-fluoropyrimidin-4-yl)-5′-methyl-5′,6′-dihydro-4′H-spiro[cyclobutane-1,7′-thieno[3,2-c]pyridin]-4′-one]",≥ 7.70,6.70 to 7.70,
"CN1CCN(c2ccc(Nc3ncc(F)c(-c4cc5c(s4)C4(CCCC4)CN(C)C5=O)n3)nc2)C(C(F)(F)F)C1 (stereo not drawn) [Example 65, 2-[5-Fluoro-2-[[5-[4-methyl-2-(trifluoromethyl)piperazin-1-yl]pyridin-2-yl]amino]pyrimidin-4-yl]-5-methylspiro[6H-thieno[3,2-c]pyridine-7,1′-cyclopentane]-4-one]",≥ 7.70,,
"CCN1CCN(Cc2ccc(Nc3ncc(F)c(-c4ccc5c(c4)C4(CCCC4)CN(C)C5=O)n3)nc2)CC1 [Example 68, 6′-(2-((5-((4-Ethylpiperazin-1-yl)methyl)pyridin-2-yl)amino)-5-fluoropyrimidin-4-yl)-2′-methyl-2′,3′-dihydro-1′H-spiro [cyclo-pentane-1,4′-isoquinolin]-1′-one]",≥ 7.70,,
"CCN1CC2(C1)CN(c1ccc(Nc3ncc(F)c(-c4cc5c(s4)C4(CN(C)C5=O)CC5(CC5)C4)n3)nc1)C2 [Example 76, 2″-(2-((5-(6-Ethyl-2,6-diazaspiro[3.3]heptan-2-yl)pyridin-2-yl)amino)-5-fluoropyrimidin-4-yl)-5″-methyl-5″,6″-dihydro-4″H-dispiro[cyclopropane-1,1′-cyclobutane-3′,7″-thieno[3,2-c]pyridin]-4″-one]",≥ 7.70,,
"CN1CCC(c2ccc(Nc3ncc(F)c(-c4ccc5c(c4)C4(CCCC4)N(C)C5=O)n3)nc2)CC1 [Example 79, 6′-(5-Fluoro-2-((5-(1-methylpiperidin-4-yl)pyridin-2-yl)amino)pyrimidin-4-yl)-2′-methylspiro[cyclopentane-1,1′-isoindolin]-3′-one]",6.70 to 7.70,,
"CN1CCC(c2ccc(Nc3ncc(F)c(-c4cc5c(s4)C4(CN(C)C5=O)CC(F)(F)C4)n3)nc2)CC1 [Example 84, 3,3-Difluoro-2′-(5-fluoro-2-((5-(1-methylpiperidin-4-yl)pyridin-2-yl)amino)pyrimidin-4-yl)-5′-methyl-5′,6′-dihydro-4′H-spiro[cyclobutane-1,7′-thieno[3,2-c]pyridin]-4′-one]",6.70 to 7.70,,
"CCN1CC2(C1)CN(c1ccc(Nc3ncc(F)c(-c4cc5c(s4)C4(CN(C)C5=O)CC(F)(F)C4)n3)nc1)C2 [Example 85, 2′-(2-((5-(6-Ethyl-2,6-diazaspiro[3.3]heptan-2-yl)pyridin-2-yl)amino)-5-fluoropyrimidin-4-yl)-3,3-difluoro-5′-methyl-5′,6′-dihydro-4′H-spiro[cyclobutane-1,7′-thieno[3,2-c]pyridin]-4′-one]",6.70 to 7.70,,

# Results, then the compound that gave them:
pIC50 (CDK4/Cyclin D1),"pIC50 ([1]; Homo sapiens, 240 h)",pIC50 [1],Structure (SMILES)
≥ 7.70,6.70 to 7.70,,"CCN1C(=O)c2c(sc(-c3nc(Nc4ccc(C5CCN(C)CC5)cn4)ncc3Cl)c2C)C12CC2 [Example 11, 2′-(5-Chloro-2-((5-(1-methyl-piperidin-4-yl)pyridin-2-yl)amino)pyrimidin-4-yl)-5′-ethyl-3′-methylspiro[cyclopropane-1,6′-thieno[2,3-c]pyrrol]-4′(5′H)-one]"
≥ 7.70,,6.70 to 7.70,CCN1C(=O)c2cc(-c3nc(Nc4ccc(N5C[C@H]6CN(C)C[C@H]6C5)cn4)ncc3C)sc2C12CC2 [Example 17]
≥ 7.70,5.70 to 6.70,,"CCN1CCC(c2ccc(Nc3ncc(F)c(-c4cc5c(s4)C4(CC4)CN(C)C5=O)n3)nc2)C1 (stereo not drawn) [Example 31, 2′-(2-((5-(1-Ethylpyrrolidin-3-yl)pyridin-2-yl)amino)-5-fluoropyrimidin-4-yl)-5′-methyl-5′,6′-dihydro-4′H-spiro[cyclo-propane-1,7′-thieno[3,2-c]pyridin]-4′-one]"
≥ 7.70,,,"CCN1CCN(Cc2ccc(Nc3ncc(F)c(-c4sc5c(c4C)C(=O)N(C)CC54CCC4)n3)nc2)CC1 [Example 56, 2′-(2-((5-((4-Ethylpiperazin-1-yl)methyl)pyridin-2-yl)amino)-5-fluoropyrimidin-4-yl)-3′,5′-dimethyl-5′,6′-dihydro-4′H-spiro[cyclobutane-1,7′-thieno[3,2-c]pyridin]-4′-one]"
6.70 to 7.70,,,"CCN1CC2(C1)CN(c1ccc(Nc3ncc(F)c(-c4ccc5c(c4)C4(CCC4)CN(C)C5=O)n3)nc1)C2 [Example 69, 6′-(2-((5-(6-Ethyl-2,6-diazaspiro[3.3]heptan-2-yl)pyridin-2-yl)amino)-5-fluoropyrimidin-4-yl)-2′-methyl-2′,3′-dihydro-1′H-spiro[cyclobutane-1,4′-isoquinolin]-1′-one]"
≥ 7.70,,,"C/C=C/CN1CCC(c2ccc(Nc3ncc(F)c(-c4sc5c(c4C)C(=O)N(C)C54CC4)n3)nc2)C1 (stereo not drawn) [Example 72, (E)-2′-(2-((5-(1-(But-2-en-1-yl)pyrrolidin-3-yl)pyridin-2-yl)amino)-5-fluoropyrimidin-4-yl)-3′,5′-dimethylspiro[cyclopropane-1,6′-thieno[2,3-c]pyrrol]-4′(5′H)-one]"
6.70 to 7.70,,,"CCN1CC2(C1)CN(c1ccc(Nc3ncc(F)c(-c4cc5c(s4)C4(CCCCC4)CN(CC)C5=O)n3)nc1)C2 [Example 75, 5′-Ethyl-2′-(2-((5-(6-ethyl-2,6-diazaspiro[3.3]heptan-2-yl)pyridin-2-yl)amino)-5-fluoropyrimidin-4-yl)-5′,6′-dihydro-4′H-spiro[cyclohexane-1,7′-thieno[3,2-c]pyridin]-4′-one]"
6.70 to 7.70,,,"CN1CCC(c2ccc(Nc3ncc(F)c(-c4cc5c(s4)C4(CCCC4)CN(C)C5=O)n3)nn2)CC1 [Example 87, 2-[5-Fluoro-2-[[6-(1-methylpiperidin-4-yl)pyridazin-3-yl]amino]pyrimidin-4-yl]-5-methylspiro[6H-thieno[3,2-c]pyridine-7,1′-cyclopentane]-4-one]"
